{"source": "paper PMC11671411", "about": "(Oncology Research, 2024)", "molecular_target": "T1, PI3KCD (Homo sapiens, UniProt O00329)", "T1 construct": "gene PIK3CD", "T1 sequence (O00329 whole entry, canonical isoform)": "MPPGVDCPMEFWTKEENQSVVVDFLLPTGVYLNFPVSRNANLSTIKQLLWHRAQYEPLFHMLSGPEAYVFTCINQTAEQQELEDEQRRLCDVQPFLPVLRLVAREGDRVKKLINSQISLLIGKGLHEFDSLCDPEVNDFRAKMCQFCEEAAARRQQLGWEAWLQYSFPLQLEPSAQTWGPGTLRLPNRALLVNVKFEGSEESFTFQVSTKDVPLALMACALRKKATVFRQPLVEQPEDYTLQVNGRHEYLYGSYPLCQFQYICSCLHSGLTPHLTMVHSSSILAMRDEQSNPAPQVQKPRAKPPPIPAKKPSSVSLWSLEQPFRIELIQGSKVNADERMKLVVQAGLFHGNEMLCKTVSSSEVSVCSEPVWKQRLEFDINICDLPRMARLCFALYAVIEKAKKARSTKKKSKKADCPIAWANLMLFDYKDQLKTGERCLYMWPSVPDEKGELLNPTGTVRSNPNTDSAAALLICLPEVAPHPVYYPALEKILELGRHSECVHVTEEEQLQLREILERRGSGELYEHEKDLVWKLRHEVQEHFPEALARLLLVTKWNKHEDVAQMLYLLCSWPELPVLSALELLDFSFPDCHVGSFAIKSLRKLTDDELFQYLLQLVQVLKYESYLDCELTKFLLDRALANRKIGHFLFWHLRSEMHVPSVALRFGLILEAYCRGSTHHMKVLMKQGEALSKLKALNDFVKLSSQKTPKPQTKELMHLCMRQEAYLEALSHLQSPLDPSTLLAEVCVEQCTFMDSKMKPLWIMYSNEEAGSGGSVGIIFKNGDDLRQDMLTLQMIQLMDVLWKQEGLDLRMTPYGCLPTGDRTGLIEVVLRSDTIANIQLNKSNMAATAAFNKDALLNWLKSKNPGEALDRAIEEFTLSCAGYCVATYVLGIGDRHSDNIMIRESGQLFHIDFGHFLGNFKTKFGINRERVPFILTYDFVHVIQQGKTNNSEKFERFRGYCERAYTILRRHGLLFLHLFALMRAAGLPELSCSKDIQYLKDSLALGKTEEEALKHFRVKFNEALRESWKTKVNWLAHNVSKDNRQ", "assay": "PI 3-Kinase (human) HTRF enzyme assay with the PI3KCD isoform", "assay_type": "biochemical", "data": [{"smiles": "c1ccc2c(c1)c1ccccc1c1nc3c4ccccc4c4ccccc4c3nc21", "note": "[SBL-JP-0004, tetrabenzo[a,c,h,j]phenazine]", "values": [{"measurement": "IC50", "value": 201, "unit": "nM"}]}]}
